Experimental data: ChEMBL document CHEMBL3886745, “Pyrrolidine compounds” (2016)

Biological target: T1, Neuromedin-K receptor (Homo sapiens, UniProt P29371)
T1 sequence (P29371 whole entry): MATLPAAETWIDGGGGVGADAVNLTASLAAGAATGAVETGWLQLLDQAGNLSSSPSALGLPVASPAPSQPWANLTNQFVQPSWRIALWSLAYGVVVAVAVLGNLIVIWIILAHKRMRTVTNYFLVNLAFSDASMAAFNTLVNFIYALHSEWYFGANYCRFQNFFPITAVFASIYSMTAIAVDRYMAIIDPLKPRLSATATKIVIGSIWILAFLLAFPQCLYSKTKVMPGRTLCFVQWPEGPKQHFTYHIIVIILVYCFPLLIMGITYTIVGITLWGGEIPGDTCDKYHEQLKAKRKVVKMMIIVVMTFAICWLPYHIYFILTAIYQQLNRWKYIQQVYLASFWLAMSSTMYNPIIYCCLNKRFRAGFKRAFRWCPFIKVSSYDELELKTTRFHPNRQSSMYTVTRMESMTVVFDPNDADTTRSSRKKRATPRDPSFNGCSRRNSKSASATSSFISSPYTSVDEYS
Assay: [3H]SR142801 Competition Binding Assay: hNK3 receptor binding experiment were performed using [3H]SR142801 (Catalog No. TRK1035, specific activity: 74.0 Ci/mmol, Amersham, GE Healthcare UK limited, Buckinghamshire, UK) and membrane isolated from HEK293 cells transiently expressing recombinant human NK3 receptor. After thawing, the membrane homogenates were centrifuged at 48,000×g for […] at 4° C., the pellets were resuspended in the 50 mM Tris-HCl, 4 mM MnCl2, 1 μM phosphoramidon, 0.1% BSA binding buffer at pH 7.4 to a final assay concentration of 5 μg protein/well. For inhibition experiments, membranes were incubated with [3H]SR142801 at a concentration equal to KD value of radioligand and 10 concentrations of the inhibitory compound (0.0003-10 μM) (in a total reaction volume of 500 μl) for 75 min at room temperature (RT). At the end of the incubation, membranes were filtered onto unitfilter (96-well white microplate with bonded GF/C filter preincubated 1 h in 0.3% PEI+0.3% BSA, Packard BioScience, Meriden, Conn.) with a Filtermate 196 harvester (Packard BioScience) and washed 4 times with ice-cold 50 mM Tris-HCl, pH 7.4 buffer. Nonspecific binding was measured in the presence of 10 μM SB222200 for both radioligands. […]
Assay type: cell membranes

Row | SMILES | Ki
1 | CCN(C(=O)Oc1ccc(F)cc1)[C@@H]1CN(C(=O)C2CCN(c3ccc(C(F)(F)F)cn3)CC2)C[C@H]1c1ccc(F)c(F)c1 | 9 nM
2 | CCN(C(=O)Oc1ccc(F)cc1)[C@@H]1CN(C(=O)C2CCN(c3ccc(OC(C)=O)cn3)CC2)C[C@H]1c1ccc(Cl)cc1 | 6 nM
